Assay results published in BindingDB's records for doi:10.1016/j.bmcl.2015.05.094 (Orleans University, 2015).

Experiment: Antagonist activity at human alpha-7 nicotinic acetylcholine receptor expressed in rat GH3 cells assessed as inhibition of epibatidine-induced Ca2+ influx preincubated for 5 mins followed by epibatidine induction measured for 3 mins by fluorescence assay

COc1ccc(CC2C[N+]3(C)CCC2CC3)cc1 (stereo unspecified)
IC50: 12.3 µM
